Source: patent publication US5906922A, “Delivery of nucleic acids” (Commonwealth Scientific and Industrial Research Organisation, priority 1994, dated 1999)
Entries after “also recorded” stand apart in the source; their conditions may differ. Read-outs that look alike come from different tables or passages of the source. Where a SMILES comes first, the peptide text is derived from it. The star is where a group is joined. NHC(CH2O-Palmitoyl)3 = CCCCCCCCCCCCCCCC(=O)OCC(COC(=O)CCCCCCCCCCCCCCC)(COC(=O)CCCCCCCCCCCCCCC)N*; X3 = CCCCCCCCCCCCCC(=O)OCC(CO)(CO)N*; X2 = CCCCCCCCCCCC(=O)OCC(CO)(CO)N*

Tests used:
Cos 1 cells [1] = test: β-gal microtitre plate transfection assay, Cos 1; assay type: cell-based, African Green Monkey
From the text: (§1) For experiment "c", a plasmid pPGKlaczNLS encoding β-galactosidase under the control of the mouse PGK promoter (kind gift from G.Hannan) or pSVGAL which utilises the SV40 early promoter (Sleigh, M. J. and Lockett, T. J. (1985). EMBO J. 4:3831-3837),was transfected. This experiment and assay were modified from Feigner et al J. Biol Chem. 269(4) 2550-2561 1994. This protocol allows the simultaneous assessment of 72 different combinations and concentrations of DNA and test agent in a microtitre tray. […] Cytotoxicity was assessed using alamar blue, and a sample graph is shown for experiment a.
Compounds were tested for their ability to transfect either the CAT or β-gal gene carried on plasmids, and assayed as described above.
(§2) The ratio of [lipid]/[DNA] at which that maximum was achieved is shown. Experiments shown were carried out in Cos 1 cells, as described above. MTS OD is a measure of relative viabilility of the cells exposed to the different agents, a higher value indicates greater cell viability. * These points were taken from a separate experiment and some slight variation between absolute numbers should be expected between experiments.
(§3) Each of these compounds was tested for transfection ability and cytotoxicity on standard cell lines using standard conditions as described above.
(§4) The ratio of [lipid]/[DNA] at which that maximum was achieved is shown in brackets for the two different cell types in the following order; (Cos 1) (CHO). Experiments shown were carried out in Cos 1 cells, as described above. Viability was measured with the dye alamar blue . # Denotes compounds tested in a separate experiment. * Viability in this experiment was determined with MTS. OD is a measure of relative viability of the cells exposed to the different agents, and as with alamar blue, a higher value indicates greater cell viability.

CHO cells [2] = test: β-gal microtitre plate transfection assay, CHO; assay type: cell-based, Chinese Hamster; details: Table 3, CHO; for β-gal (CHO): highest reading of 72 conditions
From the text: as §1, §3, §4

CHO cells [3] = assay type: cell-based, Chinese Hamster
Protocol: (LEGEND--FIGS. 7, 8 and 9; none; no agent used with plasmid DNA, rb/blank; reagent blank, number following description of compound indicates no. μl of 2 mM stock (diluted with water). 7b: 100% cell survival was taken from dishes which were "mock transfected" with no DNA or transfection agent. 0% viability was assayed in the absence of cells. Viability was assessed using the dye alamar blue.)
(§5) Relative levels of cytotoxicity caused by the different agents were compared during the experiment using the dye "Alamar Blue" (Alamar, Sacramento Calif.).
as §4

Cos 1 cells [4] = assay type: cell-based, African Green Monkey
From the text: as §5, §1, §2, §4

[5] = Electron microscopy of formulated and unformulated compounds; assay type: physicochemical; details: negatively stained
Protocol: Solutions of formulated and unformulated compounds were analysed for potential membrane-like structure. In separate experiments the following samples were analysed:
a: Negatively stained samples of formulated compounds K3ATP2:DOPE, DOPE and the unformulated compounds K3C7ATL3 and Lipofectamine.
b: Rotary shadowed samples of K3C7ATL3 and Lipofectamine mixed with two ratios of nucleotide (plasmid).
Stock samples of liposomes at 2 mM, were diluted 1 in 10 with filtered distilled water, and mixed 1:1 with filtered negative stain (Ammonium Molybdate 2%, pH 6.5) and spread onto carbon-formvar coated copper/rhodium 200 mesh electron microscope grids, and examined in a Jeol JEM 100CX electron microscope at 60 kV at magnifications of between 33 k and 100 k.
Ratios of 0.69, and 0.25, of liposome:1 mole DNA nucleotides were diluted in water and mixed for 10 min at room temperature, spread onto carbon-formvar coated grids and rotary metal-shadowed with platinum-palladium (60:40) evaporated at an angle of 7° and examined in the electron microscope at 60 kV at magnifications between 26 k and 66 k.

CHO cells [6] = test: Transfection of pSVLCAT, CAT assay, CHO; assay type: cell-based, Chinese Hamster
Protocol: Protocol was the same for Verafectin and Transfectam (see above) with the exception that 0.5 μg of pSVLCAT DNA was used /60 mm dish.
Lipofectamine protocol was according to manufacturer's instructions. 0.5 μg pSVLCAT/60 mm dish. CHO cells seeded 1×10^5 /60 mm dish and adhered overnight in DME/Hams medium with 10% FCS.
Transfectam 5 or 10 μl 1mg/400 μl stock solution.
Lipofectamine 5 or 10 μl 2 mg/ml (mixed formulation 3:1 with DOPE). VerafectinA3 (K3ATP3) and VerafectinG2 (K3G[Glycine]TP2) each at 5, 10 and 15 μl of 2 mM (2.8 and 2.3 mg/ml respectively) stock.
The serum free incubation period in the presence of test agents and DNA was 6 hours, then 1 ml DME/Hams+10% FCS was added. At 24 hrs the medium was changed to 2 ml of fresh DME/Hams+10% FCS until harvest at 48 hrs.
(§6) Cell lines Cos 1 or CHO were transfected with 0.5 μg of pSVLCAT or 2 μg of pPGKlacZ plasmid using a range of concentrations of each transfection compound. The optimal concentration of compound, that is the concentration giving the highest level of CAT at 48 hours or the greatest percentage of lac z (β-galactosidase) staining cells at 24 hours was used to collate data for Table 1. As all compounds were not tested in a single experiment, absolute figures indicating transfection were not used. Rather, symbols are used to indicate the transfection efficiency relative to Lipofectamine (BRL), which was included as a control in all experiments. Table 1 thus indicates the relative efficiencies of a number of compounds in mediating the transfection of at least one cell type.
(§7) All test lipopeptide reagents were originally dissolved at 10 mM in 75% DMSO, and subsequently diluted with water to make a 2 mM stock stored at 4° C. Volumes of 2 mM stock lipopeptide ranging from 2 μl to 15 μl were diluted in 500 μl of DDME. 1 μg of plasmid pSVLCAT was separately diluted in 500 μl of DDME. Solutions were combined for 10-20 min at room temperature before adding to 500 μl of DDME in 60 mm dishes of subconfluent CHO cells (2×10^5 day-1) or Cos 1 cells (5×10^5 day-1); washed free of serum with DDME.
(§8) Cells were incubated for 6 hrs under standard conditions of 37° C. and 5% CO2 for 6 hours. 1.5 ml of DME/Hams+10% FCS (CHO) or DME+10% FCS (Cos 1) was added to the cells for overnight incubation. Fresh DME/Hams+10% FCS or DME+10% FCS was used to replace the medium for a further 24 hours prior to harvest. Cell lysates were prepared and assayed for CAT activity as described above. For Cos 1 cells, culture supernatants were assayed for CAT activity.
a. Using the standard transfection procedure described above, and 1 μg plasmid pSVLCAT, these formulations were tested on CHO cells at a single concentration equivalent to 10 μl of Verafectin A2 (2 mM) per sample and compared to unformulated compound and Lipofectamine in the same cell type. CAT production was assayed 48 hours after transfection.

Cos 1 cells [7] = assay type: cell-based, African Green Monkey; remark: listed apart in the source
Protocol: Relative levels of cytotoxicity were also assayed in subsequent experiments using the dye MTS, marketed as Cell titre 96 Aqueous (Promega).
as §2, §4

Cos 1 cells [8] = test: Transfection of pSVLCAT, CAT assay, Cos 1; assay type: cell-based, African Green Monkey
Protocol: To test the transfection properties of the lead compound K3ATP3 (VerafectinA3), whole uncut plasmid carrying the gene encoding CAT (chloramphenicol acetyl transferase) under the control of the SV40 late promoter, pSVLCAT (Cameron, F. H. and Jennings, P. A. (1989) PNAS 86, 9139-9143) was mixed with the test agent and put on Cos 1 cells under various conditions. After 48 hours of culture the level of secreted CAT was assayed from the culture medium.
Solution I: 1 μg Plasmid DNA in 500 μl Dulbeccos Modified Eagles Medium (DME)
Solution II: 0-20 μl VerafectinA3 (2.5 mg/ml 25% DMSO) in 500 μl DME, Vortex
Combine solution I and II, vortex briefly and incubate at room temperature for 10 min.
Add mix to washed cells in 60 mm tissue culture dishes (seeded 0.5×10^6 /dish previous day) for 6 hrs at 37° C., 5% C02. Add 2 ml DME+10% FCS for remainder of 48 hrs. Assay CAT levels in tissue culture medium (Sleigh, M. J. (1986) Anal. Biochem. 156.251-256).
a--Compare VerafectinA3 dissolved in DMSO or ethanol.
b--Compare VerafectinA3 on cells 6 hrs to overnight. VerafectinA3 at 10 mg/ml in 100% solvent was diluted to 2.5 mg/ml with water.
Transfection was carried out as for experiment 1. VerafectinA3 was left in contact with the cells for varying times.
Protocol was the same for the Verafectins as described above. Lipofectamine protocol was according to manufacturers instructions. Cos 1 cells were seeded at 5×10^5 /60 mm dish and adhered overnight in DME with 10% FCS.
Solution A: 0.5 μg pSVLCAT/60 mm dish.
Solution B: Lipofectamine 10 and 15 μl 2 mg/ml (mixed formulation 3:1 with DOPE).
OR; VerafectinA3 and VerafectinG2 20 μl 2 mM (2.8 and 2.3 mg/ml respectively) stock.
OR; VerafectinG2 was also tested with an equimolar amount of DOPE. VerafectinG2 and DOPE were mixed in DDME and vortexed for 30 seconds before use. Solutions A and B were combined before overlaying on washed cells.
The serum free incubation period in the presence of test agents and DNA was 6 hrs, then 1 ml DME+10% FCS was added. At 24 hours medium was changed to 2 ml fresh DME+10% FCS until harvest at 48 hrs.
as §6, §7, §8
For transfection of pSVLCAT and subsequent assay of CAT enzyme, experiments "a" and "b" were carried out as described above.

[9] = Table 2, Cos 1, * separate experiment
[10] = Table 3, Cos 1, highest reading of 72 conditions

SMILES	ratio [lipid]/[DNA] at which maximum was achieved (Cos 1 cells [1]; Table 2, Cos 1)	units β-gal (Cos 1 cells [1]; [9])	ratio [lipid]/[DNA] at which maximum was achieved (Cos 1 cells [1]; Table 3, Cos 1)	β-gal (Cos 1) (Cos 1 cells [1]; [10])	ratio [lipid]/[DNA] at which maximum was achieved (CHO cells [2])	β-gal (CHO) (CHO cells [2])	Viability (CHO) (CHO cells [3])	Viability (Cos 1) (Cos 1 cells [4])	further results
CCCCCCCCCCCCCC(=O)OCC(CO)(CO)NC(=O)[C@H](C)NC(=O)[C@H](CCCCN)NC(=O)[C@H](CCCCN)NC(=O)[C@@H](N)CCCCN [K3ATM1] (H-KKKA-X3)	0.69	5.85 × 10^-6 units	.69	5.85 × 10^-6	.69	5.18 × 10^-6	0.07	0.102	
CCCCCCCC/C=C\CCCCCCCC(=O)OC[C@H](COP(=O)(O)OCCN)OC(=O)CCCCCCC/C=C\CCCCCCCC [DOPE, Dioleoyl phosphatidyl ethanolamine, reference compound]									liposome structure (TEM) [5]: does not form a true liposome; also recorded: did not under the same conditions; transfection by DOPE alone (CHO cells [6]; CHO, unformulated or "formulated"): gave no transfection
CCCCCCCCCCCCCCCC(=O)OCC(COC(=O)CCCCCCCCCCCCCCC)(COC(=O)CCCCCCCCCCCCCCC)NC(=O)[C@H](C)NC(=O)[C@H](CCCCN)NC(=O)[C@H](CCCCN)NC(=O)[C@@H](N)CCCCN [K3ATP3, trilysine alanine tris tripalmitate] (H-KKKA-{NHC(CH2O-Palmitoyl)3})	0.69			3.52 × 10^-5				0.077	units β-gal (Cos 1 cells [1]; Table 2, Cos 1, highest reading of 72 conditions): 2.73 × 10^-4 units; β-gal (Cos 1) (Cos 1 cells [1]; Table 3, Cos 1, # tested in a separate experiment): 2.73 × 10^-4; MTS OD490-655 (Cos 1 cells [7]): 1.244; Viability (Cos 1) (Cos 1 cells [7]): 1.24; amount giving peak CAT level (Cos 1 cells [8]; Experiment 1, 2.5 mg/ml stock, 10 μl (25 μg)): 10 µL; CAT levels (Cos 1 cells [8]; Experiment 1, 5 μl (12.5 μg) and above, 48 hours): Significant CAT levels; reduction of CAT levels, overnight compared to 6 hour incubation (Cos 1 cells [8]; Experiment 2): approximately 50%; CAT levels (Cos 1 cells [8]; Experiment 2, 10 μl (25 μg) and above): Significant levels of CAT; transfection level relative to Lipofectamine (Cos 1 cells [8]; Experiment 4, Cos 1, 48 hours): approximately 60%; Transfection (CAT) (Cos 1 cells [8]; Table 1, Cos 1, optimised level of agent): +++(+); CAT activity (mean) (CHO cells [6]; "x" peptide experiment a, CHO, 25 μl lysate, 20 min assay at 37° C., optimal level): 6237 cpm; mean level of CAT activity (CHO cells [6]; "x" peptide experiment c, CHO, 2 hours incubation of 20 μl lysate): 13467; CAT levels relative to Lipofectamine (CHO cells [6]; Experiment 3, CHO, 5 μl): ~18%; CAT levels relative to Transfectam (CHO cells [6]; Experiment 3, CHO, 5 μl): approximately 54%; CAT activity (mean) (CHO cells [6]; R1-R4 experiment e, CHO): 8325 cpm; Transfection (CAT) (CHO cells [6]; Table 1, CHO, optimised level of agent): +++
CCCCCCCCCCCC(=O)OCC(CO)(CO)NC(=O)[C@H](C)NC(=O)[C@H](CCCCN)NC(=O)[C@H](CCCCN)NC(=O)[C@@H](N)CCCCN [K3ATL1] (H-KKKA-X2)	0.35	1.09 × 10^-5 units	.35	1.09 × 10^-5	2.77	2.99 × 10^-6	0.072	0.104	
